US20240279230A1, “CRYSTALLINE FORMS OF A HER2 INHIBITOR” (Boehringer Ingelheim International GmbH, priority 2022, published 2024)
“Also recorded” adds a separate entry of the source.

How the values were obtained:
Type in all cases: physicochemical
[1] = Thermogravimetric Analysis (TGA); details: 20° C./min
Procedure: The methodology for this can be as follows. Solid compounds (˜5 mg) are placed in an aluminium pan and sealed. The instrument used for the analysis is a TA Instruments TGA 550. The same sample lots from DSC testing are used for TGA testing. Processing is completed using TRIOS software.

[2] = Polymorphic stability of form III and form IV under stress storage, PXRD; details: 21 days;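 note: open storage at 90 °C with 3% RH or 78% RH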
Procedure: A Bruker D2 Phaser X-Ray Diffractometer (XRD, EQ-SSRD-XRD-01) can be used for characterizing the samples. Raw results are evaluated using DIFFRAC.EVA (Bruker, V5.0) software. The Kα2 contribution was stripped, and a peak search was performed using peak search parameters (width 0.302 and threshold 1.0).
A test sample (approximately 0.3 g) is representatively subsampled into an agate-type mortar and pestle. Sample is ground for approximately one minute to achieve a fine homogenous powder. Sample is then transferred into a stainless-steel sample holder fitted with a zero-diffraction plate (ZDP). The sample holder is then levelled off with a glass slide to create a flat sample surface level with the sample holder.

[3] = Chemical stability of solid state forms under temperature/humidity stress, related substances by HPLC at 252 nm; parameters: Impurity I / Impurity A / Impurity B / Impurity C / Impurity D / Impurity E / Impurity F / Impurity G / Impurity H: unit not given here
Text: To do so, control samples are stored refrigerated in the presence of desiccant for the duration of the study and measured simultaneously with stressed samples by HPLC at a wavelength of 252 nm.

[4] = Dynamic Vapor Sorption (DVS) sorption isotherms, hygroscopic behaviour; details: for Hygroscopicity: DVS classification; for Δm (0-80%), moisture absorbed at 80% RH / Δm (0-90%), maximum water uptake: DVS, 25.0 ±1.0° C.; for Δm (0-90%), maximum water uptake: up to 90% RH; for Hysteresis: between sorption and desorption curves
Procedure: The methodology for this can be as follows. The mass of the solids is monitored as the relative humidity (RH) was deliberately changed. The RH is cycled twice from 0% to 90% to 0% in 10% steps. The temperature during measurement is kept constantly at (25.0 ±1.0° C.) Each step is held until mass stability was achieved. A camera inside the instrument captured an image at the conclusion of each stage, allowing for the observation of any visual changes in the solid form during the analysis.

[5] = Control 1, stored refrigerated with desiccant
[6] = Control 2, stored refrigerated with desiccant
[7] = Control 3, stored refrigerated with desiccant

TGA change in mass ([1]; Decomposition): 49.938%
TGA onset ([1]; Decomposition): 420.14 °C
TGA change in mass ([1]; Small mass loss event): 1.285%
TGA end ([1]; Small mass loss event): 243.82 °C
TGA onset ([1]; Small mass loss event): 224.60 °C
TGA change in mass ([1]; Small mass loss event, listed as form IV): around 1%
Color change after stressing ([3]; 60-90° C., 3-79% RH, up to 21 days): No color changes
Impurity A ([3]; 60° C./75% RH, 17 days): 0.111
Impurity B ([3]; 60° C./75% RH, 17 days): 0.008
Impurity C ([3]; 60° C./75% RH, 17 days): 0.066
Impurity D ([3]; 60° C./75% RH, 17 days): 0.014
Impurity E ([3]; 60° C./75% RH, 17 days): 0.074
Impurity F ([3]; 60° C./75% RH, 17 days): 0.012
Impurity G ([3]; 60° C./75% RH, 17 days): 0.037
Impurity H ([3]; 60° C./75% RH, 17 days): 0.132
Impurity I ([3]; 60° C./75% RH, 17 days): 0.012
Impurity A ([3]; 70° C./62% RH, 17 days): 0.113
Impurity B ([3]; 70° C./62% RH, 17 days): 0.010
Impurity C ([3]; 70° C./62% RH, 17 days): 0.065
Impurity D ([3]; 70° C./62% RH, 17 days): 0.022
Impurity E ([3]; 70° C./62% RH, 17 days): 0.069
Impurity F ([3]; 70° C./62% RH, 17 days): 0.013
Impurity G ([3]; 70° C./62% RH, 17 days): 0.038
Impurity H ([3]; 70° C./62% RH, 17 days): 0.133
Impurity I ([3]; 70° C./62% RH, 17 days): 0.012
Impurity A ([3]; 75° C./41% RH, 17 days): 0.113
Impurity B ([3]; 75° C./41% RH, 17 days): 0.010
Impurity C ([3]; 75° C./41% RH, 17 days): 0.072
Impurity D ([3]; 75° C./41% RH, 17 days): 0.015
Impurity E ([3]; 75° C./41% RH, 17 days): 0.078
Impurity F ([3]; 75° C./41% RH, 17 days): 0
Impurity G ([3]; 75° C./41% RH, 17 days): 0.027
Impurity H ([3]; 75° C./41% RH, 17 days): 0.129
Impurity I ([3]; 75° C./41% RH, 17 days): 0.010
Impurity A ([3]; 75° C./79% RH, 10 days): 0.103
Impurity B ([3]; 75° C./79% RH, 10 days): 0.010
Impurity C ([3]; 75° C./79% RH, 10 days): 0.065
Impurity D ([3]; 75° C./79% RH, 10 days): 0.017
Impurity E ([3]; 75° C./79% RH, 10 days): 0.073
Impurity F ([3]; 75° C./79% RH, 10 days): 0.016
Impurity G ([3]; 75° C./79% RH, 10 days): 0.038
Impurity H ([3]; 75° C./79% RH, 10 days): 0.130
Impurity I ([3]; 75° C./79% RH, 10 days): 0.012
Impurity A ([3]; 80° C./11% RH, 17 days): 0.109
Impurity B ([3]; 80° C./11% RH, 17 days): 0.009
Impurity C ([3]; 80° C./11% RH, 17 days): 0.073
Impurity D ([3]; 80° C./11% RH, 17 days): 0.013
Impurity E ([3]; 80° C./11% RH, 17 days): 0.086
Impurity F ([3]; 80° C./11% RH, 17 days): 0
Impurity G ([3]; 80° C./11% RH, 17 days): 0.033
Impurity H ([3]; 80° C./11% RH, 17 days): 0.126
Impurity I ([3]; 80° C./11% RH, 17 days): 0.011
Impurity A ([3]; 80° C./61% RH, 10 days): 0.111
Impurity B ([3]; 80° C./61% RH, 10 days): 0.008
Impurity C ([3]; 80° C./61% RH, 10 days): 0.065
Impurity D ([3]; 80° C./61% RH, 10 days): 0.021
Impurity E ([3]; 80° C./61% RH, 10 days): 0.070
Impurity F ([3]; 80° C./61% RH, 10 days): 0.015
Impurity G ([3]; 80° C./61% RH, 10 days): 0.039
Impurity H ([3]; 80° C./61% RH, 10 days): 0.131
Impurity I ([3]; 80° C./61% RH, 10 days): 0.011
Impurity A ([3]; 90° C./3% RH, 17 days): 0.104
Impurity B ([3]; 90° C./3% RH, 17 days): 0.011
Impurity C ([3]; 90° C./3% RH, 17 days): 0.070
Impurity D ([3]; 90° C./3% RH, 17 days): 0.018
Impurity E ([3]; 90° C./3% RH, 17 days): 0.087
Impurity F ([3]; 90° C./3% RH, 17 days): 0.008
Impurity G ([3]; 90° C./3% RH, 17 days): 0.050
Impurity H ([3]; 90° C./3% RH, 17 days): 0.125
Impurity I ([3]; 90° C./3% RH, 17 days): 0.011
Impurity A ([3]; 90° C./41% RH, 10 days): 0.112
Impurity B ([3]; 90° C./41% RH, 10 days): 0.010
Impurity C ([3]; 90° C./41% RH, 10 days): 0.065
Impurity D ([3]; 90° C./41% RH, 10 days): 0.021
Impurity E ([3]; 90° C./41% RH, 10 days): 0.076
Impurity F ([3]; 90° C./41% RH, 10 days): 0.011
Impurity G ([3]; 90° C./41% RH, 10 days): 0.044
Impurity H ([3]; 90° C./41% RH, 10 days): 0.127
Impurity I ([3]; 90° C./41% RH, 10 days): 0.012
Impurity A ([3]; 90° C./78% RH, 17 days): 0.098
Impurity B ([3]; 90° C./78% RH, 17 days): 0.011
Impurity C ([3]; 90° C./78% RH, 17 days): 0.068
Impurity D ([3]; 90° C./78% RH, 17 days): 0.015
Impurity E ([3]; 90° C./78% RH, 17 days): 0.080
Impurity F ([3]; 90° C./78% RH, 17 days): 0.014
Impurity G ([3]; 90° C./78% RH, 17 days): 0.043
Impurity H ([3]; 90° C./78% RH, 17 days): 0.125
Impurity I ([3]; 90° C./78% RH, 17 days): 0.010
Impurity A [3, 5]: 0.102
Impurity B [3, 5]: 0.009
Impurity C [3, 5]: 0.064
Impurity D [3, 5]: 0.011
Impurity E [3, 5]: 0.074
Impurity F [3, 5]: 0.015
Impurity G [3, 5]: 0.037
Impurity H [3, 5]: 0.129
Impurity I [3, 5]: 0.012
Impurity A [3, 6]: 0.091
Impurity B [3, 6]: 0.009
Impurity C [3, 6]: 0.064
Impurity D [3, 6]: 0.012
Impurity E [3, 6]: 0.070
Impurity F [3, 6]: 0.013
Impurity G [3, 6]: 0.032
Impurity H [3, 6]: 0.130
Impurity I [3, 6]: 0.012
Impurity A [3, 7]: 0.114
Impurity B [3, 7]: 0.009
Impurity C [3, 7]: 0.070
Impurity D [3, 7]: 0.013
Impurity E [3, 7]: 0.071
Impurity F [3, 7]: 0
Impurity G [3, 7]: 0.023
Impurity H [3, 7]: 0.129
Impurity I [3, 7]: 0.012
Chemical stability in the solid state ([3]; up to 21 days at 90° C./78% RH): chemically very stable
Change in visual appearance during the humidity cycles ([4]; DVS camera images): No change in the visual appearance
Hygroscopicity [4]: slightly hygroscopic
Hygroscopicity ([4]; listed as form IV): slightly hygroscopic
Δm (0-80%), moisture absorbed at 80% RH [4]: 0.4 wt %
Δm (0-80%), moisture absorbed at 80% RH ([4]; listed as form IV): 0.4 wt %
Δm (0-90%), maximum water uptake [4]: 0.5 wt %
Δm (0-90%), maximum water uptake ([4]; listed as form IV): 0.5 wt %
Hysteresis [4]: no
Hysteresis ([4]; listed as form IV): lack of hysteresis
Structure (SMILES): C=CC(=O)NC1CCN(c2ncc3ncnc(Nc4ccc(Oc5ccc6c(c5)ncn6C)c(C)c4)c3n2)CC1 [Form IV, N-{1-[8-({3-methyl-4-[(1-methyl-1H-1,3-benzodiazol-5-yl)oxy]phenyl}amino)-[1,3]diazino[5,4-d]pyrimidin-2-yl]piperidin-4-yl}prop-2-enamide]
Polymorphic stability by PXRD ([2]; open storage 90° C./3% RH): stable and conformed to form IV reference standard; also recorded: neither form underwent phase changes
Polymorphic stability by PXRD ([2]; open storage 90° C./78% RH): stable and conformed to form IV reference standard; also recorded: neither form underwent phase changes
Increase in related substances ([3]; accelerated stress conditions, up to 21 days at 90° C./78% RH): no significant increase in any related substance
Phase change during DVS experiment ([4]; RH cycled twice 0% to 90% to 0%): no indication of irreversible phase conversion or hydrate formation; also recorded: no irreversible phase changes
